Results published in the NIST ThermoML archive (doi:10.1021/je030151s).

Assay: xn = mol fraction of the nth substance listed
Conditions: 101.3 kPa, Liquid; for viscosity: Capillary tube (Ostwald / Ubbelohde) method

CCC(=O)CC [pentan-3-one] + Cc1ccccc1C
Conditions	mass density, 293.15 K [kg/m3]	mass density, 303.15 K [kg/m3]	mass density, 313.15 K [kg/m3]	speed of sound, 293.15 K [m/s]	speed of sound, 303.15 K [m/s]	speed of sound, 313.15 K [m/s]	viscosity, 293.15 K [mPa·s]	viscosity, 303.15 K [mPa·s]	viscosity, 313.15 K [mPa·s]
x1 = 0.0955	878	870.5	862.4	1357	1328	1287.6	0.7649	0.677	0.5965
x1 = 0.2073	875	868.5	859.4	1345.1	1315	1277	0.7182	0.638	0.565
x1 = 0.3191	871.1	863.1	855	1333.5	1303	1262	0.675	0.6003	0.533
x1 = 0.4298	865.3	857.3	848.8	1318.8	1287	1251	0.636	0.562	0.502
x1 = 0.5338	859.5	850.5	842.5	1306	1272	1238	0.6001	0.5271	0.474
x1 = 0.6363	852.1	844	835.5	1292.2	1255.8	1224	0.568	0.497	0.447
x1 = 0.7329	845	837.3	827.9	1279.4	1245	1208.3	0.537	0.4719	0.424
x1 = 0.8283	836.8	829.1	819.9	1266.2	1229	1194	0.51	0.4481	0.4034
x1 = 0.9242	826.3	817	808.2	1250.9	1213	1179.3	0.4882	0.4333	0.3872
x1 = 1	814.4	804.7	794.9	1230.7	1197.8	1159.1	0.4714	0.4231	0.3799
